Laboratory results reported in patent US9040498B2, “1,2,3-Triazolyl purine derivatives” (RESEARCH FOUNDATION OF THE CITY UNIVERSITY OF NEW YORK, priority 2012, dated 2015).
Like-named read-outs stand apart in the source and are kept apart here.

Key:
[1] = system: CMV AD-169 strain; assay: Anti-CMV activity in HEL cell cultures, AD-169 strain; type: cell-based, cytomegalovirus; conditions: reduce virus plaque formation by 50%
[2] = system: CMV Davis strain; assay: Anti-CMV activity in HEL cell cultures, Davis strain; type: cell-based, cytomegalovirus; conditions: reduce virus plaque formation by 50%
[3] = system: HEL cell; assay: HEL cell effects: cell morphology (minimum cytotoxic concentration); conditions: minimum cytotoxic concentration causing microscopically detectable alteration of cell morphology
[4] = system: paclitaxel-resistant (PTX22) ovarian cancer cell line; assay: GI50 against paclitaxel-resistant ovarian cancer cell line PTX22; conditions: read-out: GI50 PTX22
[5] = system: ovarian (1A9) cancer cell line; assay: GI50 against ovarian cancer cell line 1A9; conditions: read-out: GI50 1A9
[6] = system: p53KO HCT116 cancer cell line; assay: GI50 against p53KO HCT116 cancer cell line; conditions: read-out: GI50 p53KO
[7] = system: paclitaxel-resistant (PTX10) ovarian cancer cell line; assay: GI50 against paclitaxel-resistant ovarian cancer cell line PTX10
[8] = system: colorectal (HCT116) cancer cell line; assay: GI50 against colorectal cancer cell line HCT116
[9] = system: HEL cell; assay: HEL cell effects: cell growth; conditions: read-out: HEL cell effects cell growth (IC50); concentration required to reduce cell growth by 50%
[10] = system: murine leukemia L1210, human lymphocyte CEM, and HeLa cells; assay: Cytostatic activity against L1210, CEM and HeLa cells; type: cell-based; conditions: for cytostatic activity (in words): L1210, CEM, HeLa; for IC50: range over L1210 (48 h), CEM (72 h), HeLa (96 h)
Description: The cytostatic effects of the test compounds on murine leukemia cells (L1210), human T-lymphocyte cells (CEM) and human cervix carcinoma cells (HeLa) were evaluated as follows: an appropriate number of cells suspended in growth medium were allowed to proliferate in 200-μL-wells of 96-well-microtiter plates in the presence of variable amounts of test compounds at 37° C. in a humidified CO2-controlled atmosphere. After 48 h (L1210), 72 h (CEM) or 96 h (HeLa), the number of cells was counted in a Coulter counter. The IC50 value is defined as the concentration required to inhibit cell proliferation by 50%.

[11] = system: vesicular stomatitis virus (VSV); type: cell-based; conditions: human cervix carcinoma HeLa cell cultures; read-out: anti-vesicular stomatitis virus (VSV) activity
[12] = system: HeLa and HEL cell cultures
[13] = system: vesicular stomatitis virus (VSV); type: cell-based; conditions: human embryonic lung (HEL) fibroblast cell cultures
[14] = system: cytomegalovirus (CMV); assay: Anti-CMV activity in HEL cells (both strains); type: cell-based; conditions: for anti-CMV activity (in words): HEL cells
[15] = HEL cell cultures, virus input 100 PFU
[16] = paclitaxel-resistant ovarian PTX22, four days
[17] = read-out: GI50 PTX10, paclitaxel-resistant ovarian PTX10, four days
[18] = read-out: GI50 HCT116, colorectal HCT116, four days

Row | Compound | EC50 [1, 15] [µM] | EC50 [2, 15] [µM] | HEL cell effects cell morphology (MDC) [3] [μM] | GI50 [4, 16] [µM] | GI50 ([5]; ovarian 1A9, four days) [µM] | GI50 ([6]; p53KO HCT116, four days) [µM] | GI50 [7, 17] [µM] | GI50 [8, 18] [µM] | IC50 [9] [µM] | EC50 ([2]; […]) [µM] | further results
1 | OCc1cn(-c2nc(O)c3ncn([C@@H]4O[C@H](CO)[C@@H](O)[C@H]4O)c3n2)nn1 [Compound 20, 2-[4-(Hydroxymethyl)-1,2,3-triazol-1H-yl]inosine] | > 270 | > 270 | >270 | 3.53 | 20.4 | 42.6 | > 50 | > 50 | – | – | –
2 | CC(=O)O[C@H]1C(=O)[C@@]2(C)[C@H]([C@H](OC(=O)c3ccccc3)[C@]3(O)C[C@H](OC(=O)[C@H](O)[C@@H](NC(=O)c4ccccc4)c4ccccc4)C(C)=C1C3(C)C)[C@]1(OC(C)=O)CO[C@@H]1C[C@@H]2O [paclitaxel, reference compound] | – | – | – | – | – | – | – | – | – | – | GI50 [4]: 0.068 µM; GI50 [5]: 0.00151 µM; GI50 ([7]; PTX10, read-out: GI50 PTX10): 0.079 µM; GI50 ([8]; Homo sapiens, HCT-116, read-out: GI50 HCT116): 0.00685 µM
3 | O=C1c2ccccc2C(=O)N1Cc1cn(-c2nc(O)c3ncn([C@@H]4O[C@H](CO)[C@@H](O)[C@H]4O)c3n2)nn1 [Compound 21, 2-[4-(N-Phthalimidomethyl)-1,2,3-triazol-1H-yl]inosine] | – | > 200 | >200 | 14.1 | 6.32 | > 50 | > 50 | > 50 | > 200 | – | –
4 | CCCCc1cn(-c2nc(O)c3ncn([C@H]4C[C@H](O)[C@@H](CO)O4)c3n2)nn1 [Compound 30, 2-(4-n-Butyl-1,2,3-triazol-1H-yl)-2′-deoxyinosine] | – | – | >270 | 26.9 | 46.1 | > 50 | > 50 | > 50 | – | > 270 | EC50 ([1]; […]): > 270 µM
5 | 2-[4-(Ferrocenyl)-1,2,3-triazol-1H-yl]-2′-deoxyinosine [Compound 29] | – | – | >200 | 18 | 41.6 | > 50 | > 50 | > 50 | > 200 | – | –
6 | O=C1c2ccccc2C(=O)N1Cc1cn(-c2nc(O)c3ncn([C@H]4C[C@H](O)[C@@H](CO)O4)c3n2)nn1 [Compound 28, 2-[4-(N-Phthalimidomethyl)-1,2,3-triazol-1H-yl]-2′-deoxyinosine] | – | – | >210 | 32.2 | 49.6 | > 50 | > 50 | > 50 | – | > 210 | EC50 ([1]; […]): > 210 µM
7 | OC[C@H]1O[C@@H](n2cnc3c(O)nc(-n4cc(-c5ccccc5)nn4)nc32)[C@H](O)[C@@H]1O [Compound 17, 2-[4-(Phenyl)-1,2,3-triazol-1H-yl]inosine] | > 50 | > 50 | 240 | 4.76 | 22.8 | > 50 | > 50 | > 50 | – | – | cytostatic activity (in words) [10]: most cytostatic; IC50 [10]: 34 to 124 µM; EC50 [11]: 27 ± 2.4 µM; toxicity observed [12]: 100 to 240 µM; anti-VSV activity (in words) [13]: could not be confirmed
8 | OCc1cn(-c2nc(O)c3ncn([C@H]4C[C@H](O)[C@@H](CO)O4)c3n2)nn1 [Compound 27, 2-[4-(Hydroxymethyl)-1,2,3-triazol-1H-yl]-2′-deoxyinosine] | – | – | >290 | 32.9 | 49.4 | > 50 | > 50 | > 50 | – | > 290 | EC50 ([1]; […]): > 290 µM
9 | Cc1ccc(-c2cn(-c3nc(O)c4ncn([C@@H]5O[C@H](CO)[C@@H](O)[C@H]5O)c4n3)nn2)cc1 [Compound 18, 2-[4-(4-Methylphenyl)-1,2,3-triazol-1H-yl]inosine] | 118 | 151 | >240 | 13.4 | 38 | > 50 | > 50 | > 50 | – | – | anti-CMV activity (in words) [14]: marginal activity
10 | OC[C@H]1O[C@@H](n2cnc3c(O)nc(-n4cc(-c5ccccc5)nn4)nc32)C[C@@H]1O [Compound 25, 2-[4-(Phenyl)-1,2,3-triazol-1H-yl]-2′-deoxyinosine] | – | – | >250 | 14.8 | 31 | > 50 | > 50 | > 50 | 188 | 158 | anti-CMV activity (in words) [14]: marginal activity
11 | OC[C@H]1O[C@@H](n2cnc3c(O)nc(-n4cc(-c5ccc(F)cc5)nn4)nc32)[C@H](O)[C@@H]1O [Compound 24, 2-[4-(4-Fluorophenyl)-1,2,3-triazol-1H-yl]inosine] | > 230 | > 230 | >230 | 31 | 34 | > 50 | > 50 | > 50 | – | – | –
12 | OC[C@H]1O[C@@H](n2cnc3c(NCc4ccccc4)nc(-n4cc(-c5ccccc5)nn4)nc32)[C@@H](O)C1O (stereo partly drawn) [Compound 35, 6-(N-Benzyl)-2-[4-(phenyl)-1,2,3-triazol-1H-yl]adenosine] | – | – | 200 | – | – | – | – | – | – | – | cytostatic activity (in words) [10]: poorly cytostatic; IC50 [10]: 90 to 120 µM; EC50 ([1]; Human betaherpesvirus 5, AD169, HEL cell cultures, virus input 100 PFU): > 40 µM; EC50 ([2]; Human betaherpesvirus 5, HEL cell cultures, virus input 100 PFU): > 40 µM; GI50 ([4]; 96 h): 24.5 µM; GI50 ([5]; 96 h): 5 µM; GI50 ([6]; Homo sapiens, HCT-116, 96 h): > 50 µM; GI50 ([7]; PTX10, 96 h, read-out: GI50 PTX10): > 50 µM; GI50 ([8]; Homo sapiens, HCT-116, 96 h, read-out: GI50 HCT116): 43.6 µM
13 | COc1ccc(-c2cn(-c3nc(O)c4ncn([C@H]5C[C@H](O)[C@@H](CO)O5)c4n3)nn2)cc1 [Compound 26, 2-[4-(4-Methoxyphenyl)-1,2,3-triazol-1H-yl]-2′-deoxyinosine] | – | – | >240 | 15.7 | 37.2 | > 50 | > 50 | > 50 | – | > 240 | EC50 ([1]; […]): > 240 µM
14 | CCCCc1cn(-c2nc(O)c3ncn([C@@H]4O[C@H](CO)[C@@H](O)[C@H]4O)c3n2)nn1 [Compound 23, 2-(4-n-Butyl-1,2,3-triazol-1H-yl)inosine] | 73 | 39 | – | 28.1 | 37 | > 50 | > 50 | > 50 | > 250 | – | anti-CMV activity (in words) [14]: somewhat more pronounced; EC50 ([14]; range over the CMV strains, read-out: EC50 against CMV in HEL cells): 39 to 73 µM
15 | COc1ccc(-c2cn(-c3nc(O)c4ncn([C@@H]5O[C@H](CO)[C@@H](O)[C@H]5O)c4n3)nn2)cc1 [Compound 19, 2-[4-(4-Methoxyphenyl)-1,2,3-triazol-1H-yl]inosine] | – | – | >230 | 8.56 | 29.5 | > 50 | > 50 | > 50 | > 230 | – | –
16 | 2-[4-(Ferrocenyl)-1,2,3-triazol-1H-yl]inosine [Compound 22] | 120 | 123 | 2190 | 12.9 | 29.7 | > 50 | > 50 | > 50 | 123 | – | anti-CMV activity (in words) [14]: marginal activity
